# Values of other authors, collected in patent US7202233B2, “Alprazolam inclusion complexes and pharmaceutical compositions thereof” (Farmarc Nederland BV, priority 2000, dated 2007).
# What was measured:
# [1] = above pH 6; FIG. 1 (Cho et al. 1983)
# [2] = 20% solution of 2-hydroxypropyl-beta-cyclodextrin
# [3] = sublingual use of commercially available oral tablet dosage forms
# [4] = tablet formulation, conventional orogastric administration
smiles,measurement,setting,value
"Cc1nnc2n1-c1ccc(Cl)cc1C(c1ccccc1)=NC2 [alprazolam, 8-chloro-1-methyl-6-phenyl-4H-[1,2,4]triazolo[4,3a][1,4]benzodiazepine]",presence of ring-open form as a function of pH,[1],no ring-open alprazolam above pH 6
same,solubility enhancement,[2],16 fold
same,"speed of onset, sublingual versus conventional orogastric administration",[3],no significant benefit
same,time of maximum plasma levels post-dose,[4],0.7 to 1.8 h
